Measured values: patent publication US10280150B2 (FORMA TM2, Inc., priority 2014, dated 2019)

Biological target: IDH1-R132H recombinant protein (Homo sapiens (Human), UniProt O75874, R132H)
Test: IDH1-R132H enzymatic assay (inhibition of NADPH consumption, diaphorase/resazurin readout)
Assay type: biochemical
Conditions: read-out: Enzyme IDH1 R132H IC50 (Range)
Procedure: Assays were performed in a 384-well black plate. An aliquot of 250 nL of compound was incubated with 10 μL of 30 nM IDH1-R132H or 10 nM IDH1-R132C recombinant protein in assay buffer (50 mM Tris pH=7.5, 150 mM NaCl, 5 mM MgCl2, 0.1% (w/v) Bovine Serum Albumin, and 0.01% Triton X-100) in each well at 25° C. for 15 minutes. After the plate was centrifuged briefly, an aliquot of 10 μL of 2 mM α-ketoglutarate and 20 μM NADPH solution prepared in assay buffer was then added to each well and the reaction was maintained at 25° C. for 45 minutes. An aliquot of 10 μL of diaphorase solution (0.15 U/mL diaphorase and 30 µM Resazurin in assay buffer) was added to each well. The plate was maintained at 25° C. for 15 minutes and then read on a plate reader with excitation and emission wavelengths at 535 nm and 590 nm, respectively. The IC50 of a given compound was calculated by fitting the dose response curve of inhibition of NADPH consumption at a given concentration with the four parameter logistic equation.

IDH1-R132H recombinant protein, sequence (O75874 whole entry R132H): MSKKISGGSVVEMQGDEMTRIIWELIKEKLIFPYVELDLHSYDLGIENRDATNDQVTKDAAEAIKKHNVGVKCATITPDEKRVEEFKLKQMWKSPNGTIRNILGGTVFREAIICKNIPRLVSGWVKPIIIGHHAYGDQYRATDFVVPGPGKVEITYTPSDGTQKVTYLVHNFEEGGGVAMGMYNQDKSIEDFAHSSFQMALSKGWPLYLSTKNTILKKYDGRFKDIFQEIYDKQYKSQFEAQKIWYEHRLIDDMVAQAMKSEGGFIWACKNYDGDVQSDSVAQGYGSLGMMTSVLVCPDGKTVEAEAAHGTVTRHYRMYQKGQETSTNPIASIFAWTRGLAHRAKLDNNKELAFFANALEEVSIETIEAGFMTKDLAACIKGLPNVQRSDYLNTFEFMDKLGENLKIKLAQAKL

| Compound | IC50 |
| --- | --- |
| O=C1OCCN1c1ccnc(NC(CF)c2cc3cc(Cl)ccc3[nH]c2=O)n1 (centres unmarked) [Compound I-171] | > 10000 nM |
| COc1cc(OC)nc(NCc2cc3cc(Cl)ccc3[nH]c2=O)n1 [Compound I-163, 6-Chloro-3-(((4,6-dimethoxypyrimidin-2-yl)amino)methyl)quinolin-2(1H)-one] | 1000 to 10000 nM |
| C[C@H](Nc1nccc(-c2cnoc2)n1)c1cc2cc(Cl)ccc2[nH]c1=O [Compound I-70] | 1000 to 10000 nM |
| C[C@H](Nc1nccc(NS(C)(=O)=O)n1)c1cc2cc(Cl)ccc2[nH]c1=O [Compound I-17] | > 10000 nM |
| C[C@H](Nc1nccc(NC2CCOC2)n1)c1cc2cc(Cl)ccc2[nH]c1=O (stereo partly drawn) [Compound I-122, 6-Chloro-3-((1S)-1-((4-((tetrahydrofuran-3-yl)amino)pyrimidin-2-yl)amino)ethyl) quinolin-2(1H)-one] | 1000 to 10000 nM |
| CC(C)[C@H]1COC(=O)N1c1ccnc(N[C@H](C)c2cc3cc(Cl)ccc3[nH]c2=O)n1 [Compound I-43, (S)-3-(2-(((R)-1-(6-Chloro-2-oxo-1,2-dihydroquinolin-3-yl)ethyl)amino)pyrimidin-4-yl)-4-isopropyloxazolidin-2-one] | > 10000 nM |
| CC(C)N(c1ccnc(NCc2cc3ccc(F)cc3[nH]c2=O)n1)S(C)(=O)=O [Compound I-165] | 1000 to 10000 nM |
| CC(=O)c1ccccc1-c1ccnc(N[C@@H](C)c2cc3cc(Cl)ccc3[nH]c2=O)n1 [Compound I-72] | 1000 to 10000 nM |
| C[C@@H](Nc1nccc(N2CCCOC2=O)n1)c1cc2cc(Cl)ccc2[nH]c1=O [Compound I-140] | > 10000 nM |
| C[C@H](Nc1nccc(SCc2ccccc2)n1)c1cc2cc(Cl)ccc2[nH]c1=O [Compound I-110] | 1000 to 10000 nM |
| CC(=O)Nc1ccccc1-c1ccnc(N[C@@H](C)c2cc3cc(Cl)ccc3[nH]c2=O)n1 [Compound I-73] | 1000 to 10000 nM |
| COC(=O)C(c1ccnc(N[C@@H](C)c2cc3cc(Cl)ccc3[nH]c2=O)n1)S(C)(=O)=O (some centres unmarked) [Compound I-134] | 1000 to 10000 nM |
| CC(=O)N(c1ccnc(N[C@@H](C)c2cc3cc(Cl)ccc3[nH]c2=O)n1)C(C)(C)C [Compound I-30] | 1000 to 10000 nM |
| C[C@H](Nc1nccc(-c2cncnc2)n1)c1cc2cc(Cl)ccc2[nH]c1=O [Compound I-62, (S)-3-(1-(4,5′-bipyrimidin-2-ylamino)ethyl)-6-chloroquinolin-2(1H)-one] | 1000 to 10000 nM |
| CC(=O)N(c1ccnc(N[C@@H](C)c2cc3cc(Cl)ccc3[nH]c2=O)n1)C1CC1 [Compound I-28, (S)—N-(2-((1-(6-chloro-2-oxo-1,2-dihydroquinolin-3-yl)ethyl)amino)pyrimidin-4-yl)-N-cyclopropylacetamide] | 100 to 1000 nM |
| C[C@H](Nc1nccc(N(C)C(=O)N(C)C)n1)c1cc2cc(Cl)ccc2[nH]c1=O [Compound I-125, (S)-1-(2-((1-(6-chloro-2-oxo-1,2-dihydroquinolin-3-yl)ethyl)amino)pyrimidin-4-yl)-1,3,3-trimethylurea] | 1000 to 10000 nM |
| CC(C)CSc1ccnc(N[C@@H](C)c2cc3cc(Cl)ccc3[nH]c2=O)n1 [Compound I-107] | 1000 to 10000 nM |
| C[C@H](Nc1nccc(CNS(C)(=O)=O)n1)c1cc2cc(Cl)ccc2[nH]c1=O [Compound I-132] | 1000 to 10000 nM |
| COc1cc2[nH]c(=O)c([C@@H](C)Nc3nccc(N4CCOC4=O)n3)cc2cc1Cl [Compound I-148] | > 10000 nM |
| CC(=O)N(Cc1ccnc(N[C@@H](C)c2cc3cc(Cl)ccc3[nH]c2=O)n1)C1CC1 [Compound I-137, (S)—N-((2-((1-(6-chloro-2-oxo-1,2-dihydroquinolin-3-yl)ethyl)amino)pyrimidin-4-yl)methyl)-N-cyclopropylacetamide] | 1000 to 10000 nM |
| CC(C)N(c1ccnc(NCc2cc3ccccc3[nH]c2=O)n1)S(C)(=O)=O [Compound I-164, N-isopropyl-N-(2-(((2-oxo-1,2-dihydroquinolin-3-yl)methyl)amino)pyrimidin-4-yl)methanesulfonamide] | > 10000 nM |
| C[C@H](Nc1nccc(NC(=O)N(C)C)n1)c1cc2cc(Cl)ccc2[nH]c1=O [Compound I-126, (S)-3-(2-((1-(6-chloro-2-oxo-1,2-dihydroquinolin-3-yl)ethyl)amino)pyrimidin-4-yl)-1,1-dimethylurea] | > 10000 nM |
| CC(C)C[S@@+]([O-])c1ccnc(N[C@@H](C)c2cc3cc(Cl)ccc3[nH]c2=O)n1 [Compound I-106] | 1000 to 10000 nM |

Next, values leading:

| IC50 | Compound |
| --- | --- |
| 1000 to 10000 nM | Cc1n[nH]c(C)c1-c1ccnc(N[C@@H](C)c2cc3cc(Cl)ccc3[nH]c2=O)n1 [Compound I-82] |
| 100 to 1000 nM | C[C@H](Nc1nccc(CC(N)=O)n1)c1cc2cc(Cl)ccc2[nH]c1=O [Compound I-130, (S)-2-(2-((1-(6-chloro-2-oxo-1,2-dihydroquinolin-3-yl)ethyl)amino)pyrimidin-4-yl) acetamide] |
| 1000 to 10000 nM | Cc1cc(-c2ccnc(N[C@@H](C)c3cc4cc(Cl)ccc4[nH]c3=O)n2)n(C)n1 [Compound I-76] |
| 100 to 1000 nM | C[C@H](Nc1nccc(C2(S(C)(=O)=O)CC2)n1)c1cc2cc(Cl)ccc2[nH]c1=O [Compound I-136, (S)-6-Chloro-3-(1-(4-(1-(methylsulfonyl)cyclopropyl)pyrimidin-2-ylamino)ethyl)quinolin-2(1H)-one] |
| < 100 nM | C[C@H](Nc1nccc(N(CC(F)(F)F)S(C)(=O)=O)n1)c1cc2cc(Cl)ccc2[nH]c1=O [Compound I-13] |
| 100 to 1000 nM | C[C@H](Nc1nccc(CN(C2CC2)S(C)(=O)=O)n1)c1cc2cc(Cl)ccc2[nH]c1=O [Compound I-6, (S)—N-((2-((1-(6-Chloro-2-oxo-1,2-dihydroquinolin-3-yl)ethyl)amino)pyrimidin-4-yl)methyl)-N-cyclopropylmethanesulfonamide] |
| 100 to 1000 nM | CC(=O)N(CC(C)C)c1ccnc(NC(C)c2cc3cc(Cl)ccc3[nH]c2=O)n1 (centres unmarked) [Compound I-34] |
| 100 to 1000 nM | C[C@H](Nc1nccc(-n2cccc2)n1)c1cc2cc(Cl)ccc2[nH]c1=O [Compound I-52] |
| 100 to 1000 nM | C[C@H](Nc1nccc(C2CCCS2(=O)=O)n1)c1cc2cc(Cl)ccc2[nH]c1=O (some centres unmarked) [Compound I-120] |
| 100 to 1000 nM | CNC(=O)Cc1ccnc(N[C@@H](C)c2cc3cc(Cl)ccc3[nH]c2=O)n1 [Compound I-131] |
| 100 to 1000 nM | CC(C)CC(=O)Nc1ccnc(N[C@@H](C)c2cc3cc(Cl)ccc3[nH]c2=O)n1 [Compound I-31] |
| 100 to 1000 nM | C[C@H](Nc1nccc(Nc2ncco2)n1)c1cc2cc(Cl)ccc2[nH]c1=O [Compound I-127, (S)-6-Chloro-3-(1-((4-(oxazol-2-ylamino)pyrimidin-2-yl)amino)ethyl)quinolin-2(1H)-one] |
| < 100 nM | CC(=O)N(CC(C)(C)C)c1ccnc(N[C@@H](C)c2cc3cc(Cl)ccc3[nH]c2=O)n1 [Compound I-26, (S)—N-(2-((1-(6-Chloro-2-oxo-1,2-dihydroquinolin-3-yl)ethyl)amino)pyrmidin-4-yl)-N-neopentylacetamide] |
| 100 to 1000 nM | CC(C)CC(=O)N(c1ccnc(N[C@@H](C)c2cc3cc(Cl)ccc3[nH]c2=O)n1)C1CC1 [Compound I-24, (S)—N-(2-((1-(6-Chloro-2-oxo-1,2-dihydroquinolin-3-yl)ethyl)amino)pyrimidin-4-yl)-N-cyclopropyl-3-methylbutanamide] |
| 100 to 1000 nM | Cc1nc(N[C@@H](C)c2cc3cc(Cl)ccc3[nH]c2=O)ncc1Br [Compound I-103] |
| 100 to 1000 nM | C[C@H](Nc1nccc(NC(=O)CC2CCOCC2)n1)c1cc2cc(Cl)ccc2[nH]c1=O [Compound I-27, (S)—N-(2-((1-(6-chloro-2-oxo-1,2-dihydroquinolin-3-yl)ethyl)amino)pyrimidin-4-yl)-2-(tetrahydro-2H-pyran-4-yl)acetamide] |
| 100 to 1000 nM | CC(C)CS(=O)(=O)c1ccnc(N[C@@H](C)c2cc3cc(Cl)ccc3[nH]c2=O)n1 [Compound I-108] |
| 100 to 1000 nM | C[C@H](Nc1nccc(-c2ccnn2C)n1)c1cc2cc(Cl)ccc2[nH]c1=O [Compound I-67, (S)-6-Chloro-3-(1-((4-(1-methyl-1H-pyrazol-5-yl)pyrimidin-2-yl)amino)ethyl)quinolin-2(1H)-one] |
| < 100 nM | C[C@H](Nc1nccc(N(CC(C)(C)C)S(C)(=O)=O)n1)c1cc2cc(Cl)ccc2[nH]c1=O [Compound I-1] |
| 100 to 1000 nM | O=C1CCCN1c1ccnc(NCc2cc3cc(Cl)ccc3[nH]c2=O)n1 [Compound I-50] |
| 100 to 1000 nM | C[C@H](Nc1nccc(CN2CCCS2(=O)=O)n1)c1cc2cc(Cl)ccc2[nH]c1=O [Compound I-119, (S)-6-chloro-3-(1-((4-((1,1-dioxidoisothiazolidin-2-yl)methyl)pyrimidin-2-yl)amino)ethyl) quinolin-2(1H)-one] |
| 100 to 1000 nM | Cc1cn(-c2ccnc(N[C@@H](C)c3cc4cc(Cl)ccc4[nH]c3=O)n2)cn1 [Compound I-57] |
| < 100 nM | CC(C)C[S@+]([O-])c1ccnc(N[C@@H](C)c2cc3cc(Cl)ccc3[nH]c2=O)n1 [Compound I-109] |
| 100 to 1000 nM | CC(Nc1nccc(N2CCOC2=O)n1)c1cc2ccccc2[nH]c1=O (centres unmarked) [Compound I-49] |
| 100 to 1000 nM | CC(C)CC(c1ccnc(N[C@@H](C)c2cc3cc(Cl)ccc3[nH]c2=O)n1)S(C)(=O)=O (some centres unmarked) [Compound I-118] |
| < 100 nM | Cc1ncn(-c2ccnc(N[C@@H](C)c3cc4cc(Cl)ccc4[nH]c3=O)n2)c1C [Compound I-53, (S)-6-Chloro-3-(1-((4-(4,5-dimethyl-1H-imidazol-1-yl)pyrimidin-2-yl)amino)ethyl)quinolin-2(1H)-one] |
| 100 to 1000 nM | CC(C)CN(c1ccnc(N[C@@H](C)c2cc3cc(Cl)ccc3[nH]c2=O)n1)c1ncco1 [Compound I-128] |
